From ChEMBL document CHEMBL5096195, “Recent research and development of NDM-1 inhibitors” (Eur J Med Chem, 2021) come the findings set out here.

≈ marks a conversion by molar mass, not a printed value. Where a SMILES comes first, the peptide text is derived from it. [ ]: non-standard residue; d: D form. The star is where a group is joined. NODAGA = O=C(O)CN1CCN(CC(=O)O)CCN(C(CCC(=O)*)C(=O)O)CC1; NMeA = CN[CH](C)C(=O)O

The subject of data set [1] is Citrobacter freundii. Put plainly: Antibacterial activity against Citrobacter freundii expressing NDM-1 assessed as decrease in meropenem MIC at 4 mg/L incubated for 18 to 20 hrs by broth microdilution method. It is filed as functional. Particulars: time 18-20 hrs. Background: In broth dilution the organism is exposed to a series of concentrations in liquid medium.

The test system of data set [2] is Citrobacter freundii. Briefly: Antibacterial activity against Citrobacter freundii expressing NDM-1 assessed as decrease in meropenem MIC at 8 mg/L incubated for 18 to 20 hrs by broth microdilution method. Particulars: time 18-20 hrs. It is filed as functional.
Data set [3] deals with Escherichia coli. Briefly: Antibacterial activity against Escherichia coli expressing NDM-1 assessed as decrease in meropenem MIC at 4 mg/L incubated for 18 to 20 hrs by broth microdilution method. It is filed as functional. The following applies: time 18-20 hrs.
Data set [4] in a line: Inhibition of NDM-1 (unknown origin) using nitrocefin as substrate. Also noted: species or system Homo sapiens.
Data set [5] is described as follows: Inhibition of NDM-1 (unknown origin) expressed in Escherichia coli. Also noted: species or system Homo sapiens.
Data set [6] concerns Escherichia coli. Briefly: Antibacterial activity against Escherichia coli measured after 18 hrs. It is filed as functional.
Another data set has as its system Klebsiella pneumoniae. Put plainly: Synergistic antibacterial activity against carbapenem-resistant Klebsiella pneumoniae expressing NDM-1 measured after 18 hrs in the presence of meropenem. It is filed as functional.
The nature of data set [7]: Inhibition of NDM-1 (unknown origin) measured after 10 mins. Details: species or system Homo sapiens.
Data set [8] in a line: Binding affinity to NDM-1 (unknown origin) assessed as inhibition constant using cefazolin as substrate incubated for 5 mins measured for every 1 sec by isothermal titration calorimetric analysis. Details: species or system Homo sapiens. Background: ITC needs no label: the signal is the heat of the interaction.
The next data set relates to L929. Briefly: Cytotoxicity against mouse L929 cells at 250 uM incubated for 48 hrs by MTT assay relative to control. It is filed as toxicity, cell-based. Particulars: l929, 48 h. For orientation: Formazan colour is commonly taken as a measure of viable cells.
The subject of data set [9] is Escherichia coli. Put plainly: Synergistic antibacterial activity against Escherichia coli BL21 (DE3) expressing NDM-1 incubated for 12 hrs in the presence of cefuroxime sodium by two-fold checkerboard microdilution method. It is filed as functional.
Data set [10] is described as follows: Inhibition of NDM-1 (unknown origin) by HPLC analysis. Also noted: species or system Homo sapiens.
The species named for the next data set is Homo sapiens. Briefly: Inhibition of NDM-1 (unknown origin) at 16 uM using cefazolin as substrate incubated for 12 hrs by Agilent UV8453 UV-Vis spectrometric analysis relative to control.
Data set [11] in a line: Inhibition of NDM-1 (unknown origin) using cefazolin as substrate incubated for 12 hrs by Agilent UV8453 UV-Vis spectrometric analysis. Details: species or system Homo sapiens.
Data set [12] in a line: Binding affinity to NDM-1 (unknown origin) assessed as kinetic constant using cefazolin as substrate preincubated for 60 sec followed by cefazolin addition after 60 sec by isothermal titration calorimetric assay. Also noted: species or system Homo sapiens.
Data set [13] can be described thus: Inhibition of NDM-1 (unknown origin). Details: species or system Homo sapiens.
Data set [14] can be described thus: Inhibition of NDM-1 (unknown origin) using meropenem as substrate incubated for 10 mins. Also noted: species or system Homo sapiens.
A short description of data set [15]: Binding affinity to NDM-1 (unknown origin) assessed as inhibition constant using meropenem as substrate incubated for 10 mins. Details: species or system Homo sapiens.
A short description of data set [16]: Inhibition of NDM-1 (unknown origin) using cefuroxime sodium as substrate incubated for 5 mins by UV-1800 spectrophotometric analysis. Also noted: species or system Homo sapiens.
Data set [17] is described as follows: Inhibition of NDM-1 (unknown origin) expressed in Escherichia coli Zc-YN3.
The nature of data set [18]: Inhibition of NDM-1 (unknown origin) by using nitrocefin as substrate preincubated for 10 min followed by nitrocefin addition incubated after 30 min. Also noted: species or system Homo sapiens.
The nature of data set [19]: Oral bioavailability in BALB/c mouse relative to control. It is filed as ADME, organism-based. The following applies: in vivo.

As usually defined, the MIC is the lowest concentration found to suppress growth. For `c1ccc(CN(CCN(Cc2ccccn2)Cc2ccccn2)Cc2ccccn2)nc1`, the MIC was found to be 0.5 µg/mL with Citrobacter freundii [1] and 0.06 µg/mL in the data set with Citrobacter freundii [2].

As to `O=C(O)CN1CCN(CC(=O)O)CCN(CC(=O)O)CC1`, in the data set with Escherichia coli [3], the MIC stood at 0.125 µg/mL.

A word on the IC50: it is the concentration that inhibits the measured activity by half. Read a high IC50 as weaker potency in that assay. With `N[C@@H](CN[C@@H](CN[C@@H](CC(=O)O)C(=O)O)C(=O)O)C(=O)O`, in data set [4], it took 4 µM to reach half-maximal inhibition (IC50).

For the compound `O=C(O)[C@@H]1SC[C@H]2CS[C@H](CS)N21`, in data set [5], inhibition was half-maximal at 23 µM (IC50).

Compound `O=C(O)[C@H]1SC[C@@H]2CS[C@@H](CS)N21` came in with an IC50 in [5] of 109 µM. This IC50 lies about 4.7-fold higher than the previous one.

Compound `CC1(C)S[C@@H]2CS[C@@H](CS)N2[C@H]1C(=O)O` yielded an IC50 in data set [5] of 180 µM.

On to `O=C1N(Cc2cccc3ccccc23)c2ccccc2C12NN=C(c1ccccc1)S2` (configuration not stated), for which the minimum inhibitory concentration (MIC) in the data set with Escherichia coli [6] was 4 µM (≈ 1.69 µg/mL); in the data set on Klebsiella pneumoniae it was 2 µM. In data set [7], this compound gave an IC50 of 6.6 µM.

The compound `CC1(C)S[C@H]2CS[C@H](CS)N2[C@@H]1C(=O)O` displayed a concentration for half-maximal inhibition (IC50) in [5] of 200 µM.

What is called Ki is a measure of affinity in units of concentration, obtained from inhibition or displacement. Turning to `O=C(NNC(=S)S)c1ccccc1O`, the Ki in data set [8] turned out to be 290 nM.

Regarding `O=C(NNC(=S)[S][K])c1ccccc1O`, the Activity in the data set on L929 is recorded as greater than 80%.

Consider `CC(C(=O)NC(Cc1ccccc1)C(=O)N(C)C(C)C(=O)NC(Cc1ccccc1)C(N)=O)N(C)C(=O)CCC(C(=O)O)N1CCN(CC(=O)O)CCN(CC(=O)O)CC1` (configuration not stated) ({NODAGA}-[NMeA]F[NMeA]F-NH2; configuration not given here), for which, in the data set on Escherichia coli [3], the minimum inhibitory concentration (MIC) is 0.125 µg/mL.

Regarding `CC1(C)S[C@@H]2[C@H](NC(=O)[C@H](N)c3ccccc3)C(=O)N2[C@H]1C(=O)O` [AMPICILLIN], in the data set on Escherichia coli [9], the minimal inhibitory concentration (MIC) came to 32 µM.

Consider `O=C(O)[C@H]1O[C@@H](Oc2cc3oc(-c4ccccc4)cc(=O)c3c(O)c2O)[C@H](O)[C@@H](O)[C@@H]1O` [BAICALIN], for which the IC50 in [10] is 3.89 µM. This counts as single-digit micromolar.

For orientation: inhibition means the percentage by which the read-out fell short of the control. `O=C(O)C(=O)CBr` [BROMOPYRUVATE] came in with an inhibition in the data set listed under Homo sapiens greater than 90%. The same compound yielded an IC50 in data set [11] of 2570 nM. Moreover, the Ki in [12] came out at 3.8 µM.

`O=C(O)CN(CCN(CC(=O)O)CC(=O)O)CC(=O)O` [EDETIC ACID]: the IC50 in [13] worked out at 1600 nM. This counts as single-digit micromolar.

`CCCCCCCCCCCC1=C(O)C(=O)C=C(O)C1=O` [EMBELIN] returned an IC50 in data set [14] of 2100 nM. In data set [15], the Ki came to 190 nM.

In data set [16], `COc1ccc([C@@H]2CC(=O)c3c(O)cc(O[C@@H]4O[C@H](CO[C@@H]5O[C@@H](C)[C@H](O)[C@@H](O)[C@H]5O)[C@@H](O)[C@H](O)[C@H]4O)cc3O2)cc1O` [HESPERIDIN] returned an IC50 of 3.35 µM.

Regarding `C=CCc1ccc(O)c(-c2cc(CC=C)ccc2O)c1` [MAGNOLOL], in data set [17], the IC50 is 6.47 µM. In other words, the single-digit micromolar range.

`COC(=O)C[C@H]1[C@]2(C)C3=C(C)[C@H](c4ccoc4)C[C@H]3O[C@@H]2[C@@H]2OC(=O)[C@]3(C)C=CC(=O)[C@@]1(C)[C@@H]23` [NIMBOLIDE] had an IC50 in data set [13] of 1340 nM.

Broadly, the bioavailability is dose-corrected exposure relative to a reference, in per cent. As to `COc1cc(/C=C/c2ccc(O)cc2)cc(OC)c1` [PTEROSTILBENE], the 50% inhibitory concentration (IC50) in data set [18] was determined as 15.37 µg/mL (≈ 60 µM). Besides, the bioavailability in data set [19] came out at 80%.
